# Assay results published in US6218157A, “Haloacetoacetate reductase, method for producing said enzyme, and method for producing alcohols using said enzyme” (priority 1997, dated 2001).
# Read-outs that look alike come from different tables or passages of the source.
# What was measured:
# Format in all cases: biochemical
# [1] = biological target: T1, ethyl 4-chloroacetoacetate reductase (Kluyveromyces lactis, UniProt Q6CT25); test: Substrate specificity: reducing activity of the enzyme on various ketones and aldehydes; conditions: for Relative activity: coenzyme NADPH, ethyl 4-chloroacetoacetate-reducing activity = 100%; for Reducing activity on substrate (in words): NADPH as electron donor
# T1 construct: almost single band, about 190 kDa on SDS-PAGE
# T1 sequence (Q6CT25 1-1893): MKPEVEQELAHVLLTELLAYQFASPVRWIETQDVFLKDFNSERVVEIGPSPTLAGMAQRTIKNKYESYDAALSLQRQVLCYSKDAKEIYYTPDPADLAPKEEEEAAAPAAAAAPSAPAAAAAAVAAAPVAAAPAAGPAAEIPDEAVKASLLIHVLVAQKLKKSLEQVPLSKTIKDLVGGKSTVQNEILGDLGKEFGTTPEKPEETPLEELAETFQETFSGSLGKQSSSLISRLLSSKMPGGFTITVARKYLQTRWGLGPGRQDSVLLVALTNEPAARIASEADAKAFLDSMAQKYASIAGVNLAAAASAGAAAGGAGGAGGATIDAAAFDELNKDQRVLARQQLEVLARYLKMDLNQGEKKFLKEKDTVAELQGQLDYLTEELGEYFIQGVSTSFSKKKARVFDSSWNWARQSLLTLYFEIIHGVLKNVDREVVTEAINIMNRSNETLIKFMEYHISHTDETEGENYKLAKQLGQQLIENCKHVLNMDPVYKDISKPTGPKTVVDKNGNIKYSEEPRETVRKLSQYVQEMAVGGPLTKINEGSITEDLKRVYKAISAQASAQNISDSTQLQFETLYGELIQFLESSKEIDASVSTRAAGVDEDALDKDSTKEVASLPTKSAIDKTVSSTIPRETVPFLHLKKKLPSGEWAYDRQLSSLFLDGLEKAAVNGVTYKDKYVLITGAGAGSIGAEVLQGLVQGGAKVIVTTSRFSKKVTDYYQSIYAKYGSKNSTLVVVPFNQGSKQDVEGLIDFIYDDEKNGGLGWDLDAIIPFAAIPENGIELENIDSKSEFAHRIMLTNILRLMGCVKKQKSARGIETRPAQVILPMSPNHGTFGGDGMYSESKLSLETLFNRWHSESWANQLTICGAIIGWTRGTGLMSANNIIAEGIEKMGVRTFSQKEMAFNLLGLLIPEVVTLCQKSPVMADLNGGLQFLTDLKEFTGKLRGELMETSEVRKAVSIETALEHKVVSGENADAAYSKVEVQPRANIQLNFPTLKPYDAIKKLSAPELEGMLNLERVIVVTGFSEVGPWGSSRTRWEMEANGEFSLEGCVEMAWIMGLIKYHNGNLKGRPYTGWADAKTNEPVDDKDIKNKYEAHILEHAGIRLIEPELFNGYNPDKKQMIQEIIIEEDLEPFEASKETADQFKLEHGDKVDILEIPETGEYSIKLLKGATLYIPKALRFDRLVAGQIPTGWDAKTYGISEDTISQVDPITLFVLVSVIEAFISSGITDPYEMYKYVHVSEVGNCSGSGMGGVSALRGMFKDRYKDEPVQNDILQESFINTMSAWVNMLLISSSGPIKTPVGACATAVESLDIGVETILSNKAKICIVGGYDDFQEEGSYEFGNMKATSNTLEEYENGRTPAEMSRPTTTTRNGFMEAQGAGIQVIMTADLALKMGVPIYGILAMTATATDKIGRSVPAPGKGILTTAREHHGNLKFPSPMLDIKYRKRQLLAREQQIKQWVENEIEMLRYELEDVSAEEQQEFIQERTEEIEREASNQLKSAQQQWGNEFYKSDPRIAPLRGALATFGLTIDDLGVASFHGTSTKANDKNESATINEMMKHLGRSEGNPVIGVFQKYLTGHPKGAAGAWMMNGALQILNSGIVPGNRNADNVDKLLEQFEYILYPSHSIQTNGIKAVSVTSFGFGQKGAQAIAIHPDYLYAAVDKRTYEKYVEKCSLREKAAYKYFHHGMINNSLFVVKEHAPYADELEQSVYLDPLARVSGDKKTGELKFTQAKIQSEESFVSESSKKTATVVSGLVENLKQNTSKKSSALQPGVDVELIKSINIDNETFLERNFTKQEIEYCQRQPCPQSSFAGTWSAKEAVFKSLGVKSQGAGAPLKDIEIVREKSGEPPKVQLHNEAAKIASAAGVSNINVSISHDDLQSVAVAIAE
# T1 sequence (Q6CWN6 1-2047 partner): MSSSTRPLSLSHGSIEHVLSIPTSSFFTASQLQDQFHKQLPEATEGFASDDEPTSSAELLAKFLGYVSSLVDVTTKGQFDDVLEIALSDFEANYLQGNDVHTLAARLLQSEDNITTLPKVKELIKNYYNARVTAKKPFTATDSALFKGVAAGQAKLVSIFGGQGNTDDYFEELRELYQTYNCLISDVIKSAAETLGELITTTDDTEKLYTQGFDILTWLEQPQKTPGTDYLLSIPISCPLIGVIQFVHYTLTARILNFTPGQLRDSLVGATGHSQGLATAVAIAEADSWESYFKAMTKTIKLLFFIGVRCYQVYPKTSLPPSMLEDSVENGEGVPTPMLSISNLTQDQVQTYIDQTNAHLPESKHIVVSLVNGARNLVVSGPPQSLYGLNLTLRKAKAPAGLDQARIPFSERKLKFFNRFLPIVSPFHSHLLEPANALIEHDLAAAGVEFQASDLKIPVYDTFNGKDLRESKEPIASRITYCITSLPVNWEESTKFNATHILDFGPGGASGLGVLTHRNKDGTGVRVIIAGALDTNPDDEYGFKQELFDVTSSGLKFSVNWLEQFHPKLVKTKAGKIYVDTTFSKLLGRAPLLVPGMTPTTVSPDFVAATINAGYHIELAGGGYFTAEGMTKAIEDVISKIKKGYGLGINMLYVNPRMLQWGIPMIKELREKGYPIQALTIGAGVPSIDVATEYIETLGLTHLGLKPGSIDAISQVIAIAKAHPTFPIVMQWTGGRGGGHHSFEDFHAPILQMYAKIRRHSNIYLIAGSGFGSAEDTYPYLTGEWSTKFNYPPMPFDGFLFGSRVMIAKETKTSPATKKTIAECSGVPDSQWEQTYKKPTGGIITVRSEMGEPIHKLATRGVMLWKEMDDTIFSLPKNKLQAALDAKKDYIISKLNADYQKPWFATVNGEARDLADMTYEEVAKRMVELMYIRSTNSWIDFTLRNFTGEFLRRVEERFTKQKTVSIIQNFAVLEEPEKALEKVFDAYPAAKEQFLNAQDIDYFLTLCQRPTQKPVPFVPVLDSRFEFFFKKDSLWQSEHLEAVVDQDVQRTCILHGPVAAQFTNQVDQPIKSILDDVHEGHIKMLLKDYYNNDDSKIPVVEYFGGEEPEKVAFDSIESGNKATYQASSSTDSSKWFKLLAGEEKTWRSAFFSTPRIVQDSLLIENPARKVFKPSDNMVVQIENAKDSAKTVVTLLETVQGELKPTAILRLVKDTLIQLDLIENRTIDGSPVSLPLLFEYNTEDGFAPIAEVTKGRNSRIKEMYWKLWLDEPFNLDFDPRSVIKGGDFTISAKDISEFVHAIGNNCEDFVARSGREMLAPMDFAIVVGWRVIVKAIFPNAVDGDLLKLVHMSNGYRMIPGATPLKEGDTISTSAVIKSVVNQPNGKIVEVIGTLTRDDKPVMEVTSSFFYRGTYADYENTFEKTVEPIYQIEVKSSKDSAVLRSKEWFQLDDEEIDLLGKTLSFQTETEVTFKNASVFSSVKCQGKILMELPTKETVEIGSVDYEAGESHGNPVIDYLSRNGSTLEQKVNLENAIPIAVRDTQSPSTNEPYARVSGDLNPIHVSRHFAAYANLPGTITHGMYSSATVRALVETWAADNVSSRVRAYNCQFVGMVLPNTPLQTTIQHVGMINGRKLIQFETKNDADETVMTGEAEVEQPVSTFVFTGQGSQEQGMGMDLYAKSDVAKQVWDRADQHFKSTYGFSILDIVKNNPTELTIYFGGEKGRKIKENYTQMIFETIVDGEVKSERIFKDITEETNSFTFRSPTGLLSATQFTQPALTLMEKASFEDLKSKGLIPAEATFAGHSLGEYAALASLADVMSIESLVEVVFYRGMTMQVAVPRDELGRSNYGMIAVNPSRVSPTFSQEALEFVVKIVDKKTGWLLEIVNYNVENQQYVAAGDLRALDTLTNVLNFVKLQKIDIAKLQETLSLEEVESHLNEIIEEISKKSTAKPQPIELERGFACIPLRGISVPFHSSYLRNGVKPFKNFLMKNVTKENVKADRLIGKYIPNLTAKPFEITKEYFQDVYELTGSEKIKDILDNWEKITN
# Protocol: (§1) In these examples, the 4-haloacetoacetic acid ester-reducing activity of the enzyme of this invention was determined by allowing it to react in a reaction system containing 50 mM potassium phosphate buffer (pH 6.5), 0.2 mM NADPH, 20 mM ethyl 4-chloroacetoacetate, and the enzyme at 30° C. and measuring the decrease in the absorbance at 340 nm in proportion to the decrease of NADPH. One unit of the enzyme was defined as the amount of the enzyme to catalyze a decrease of 1 μmol of NADPH per min. Protein was quantitated by the pigment binding method using a protein assay kit manufactured by BioRad.
# [2] = biological target: T1, ethyl 4-chloroacetoacetate reductase; test: as above; conditions: substrate 20 mM, coenzyme NAD; ethyl 4-chloroacetoacetate-reducing activity = 100%
# [3] = biological target: T1, ethyl 4-chloroacetoacetate reductase; test: Effects of various inhibitors on the ethyl 4-chloroacetoacetate-reducing activity
# Protocol: as §1
# After the enzyme obtained in Example 1 was treated with various reagents at 30° C. for 10 min, it was assayed for the remaining activity to reduce ethyl 4chloroacetoacetate.
# [4] = inhibitor 1 mM, 30° C., 10 min, standard conditions = 100%
# [5] = inhibitor 1 mM, 30° C., 10 min, standard conditions = 100%, read-out: Residual activity
smiles,measurement,setting,value
CCOC(=O)C(=O)CCc1ccccc1,Relative activity,[1]; substrate 20 mM,0%
CCOC(=O)C[C@H](O)CCl,Relative activity,[2],0%
"CC(=O)C(C)=O [2,3-Butanedione]",Relative activity,[1]; substrate 20 mM,4.2%
"CCC(=O)C(C)=O [2,3-Pentanedione]",Reducing activity on substrate (in words),[1],high activity
same,Relative activity,[1]; substrate 20 mM,44.2%
"CC(=O)CC(C)=O [2,4-Pentanedione]",Relative activity,[1]; substrate 20 mM,0%
O=C1CN2CCC1CC2 [3-Quinuclidinone],Relative activity,[1]; substrate 20 mM,0.8%
CC(=O)CCO [4-Hydroxy-2-butanone],Relative activity,[1]; substrate 20 mM,0%
CC(=O)c1ccccc1 [Acetophenone],Relative activity,[1]; substrate 20 mM,0%
CC(=O)COC(C)=O [Acetoxy-2-propanone],Relative activity,[1]; substrate 20 mM,0%
O=C(O)C(=O)CCc1ccccc1 [Benzylpyruvic acid],Relative activity,[1]; substrate 1 mM,0%
C/C=C/C(=O)O [Chlotonic acid],remaining activity at 50000 µM,"[3]; inhibitor 50 mM, 30° C., 10 min, standard conditions = 100%, read-out: Residual activity",87.7%
O=S(=O)([O-])[O-].[Cu+2] [Copper sulfate],Inhibition of the enzyme (in words),[3],inhibited
same,Residual activity,[3]; [4],0.0%
same,Inhibition of the enzyme (in words),[3]; listed as cupric sulfate,significantly inhibited
CCC1(CC)C(=O)NC(=O)NC1=O [Diethylbarbituric acid],remaining activity at 1000 µM,[3]; [5],82.5%
CCOC(=O)CC(=O)CCl [Ethyl 4-chloroacetoacetate],Relative activity,[1]; substrate 20 mM,100%
same,Relative activity,"[1]; substrate 20 mM, listed as Ethyl 4-chloroacetoaetate",0%
CCOC(=O)C[C@@H](O)CCl [Ethyl (R)-4-chloro-3-hydroxy-acetate],Relative activity,[2],0%
CCOC(=O)CC(C)=O [Ethyl acetoacetate],Relative activity,[1]; substrate 20 mM,0%
O=C(O)CN(CCN(CC(=O)O)CC(=O)O)CC(=O)O [Ethylenediaminetetraacetic acid],remaining activity at 1000 µM,[3]; read-out: Residual activity,98.4%
NC(=O)CI [Iodoacetamide],remaining activity at 1000 µM,[3]; [5],53.9%
O=C1Nc2ccccc2C1=O [Isatine],Relative activity,[1]; substrate 0.4 mM,0%
[Cl][Hg][Cl] [Mercuric chloride],Inhibition of the enzyme (in words),[3],significantly inhibited
same,Residual activity,"[3]; inhibitor 0.01 mM, 30° C., 10 min, standard conditions = 100%",0.0%
COC(=O)CC(=O)CCl [Methyl 4-chloroacetoacetate],Reducing activity on substrate (in words),[1],high activity
same,Relative activity,[1]; substrate 20 mM,66.3%
COC(=O)CC(C)=O [Methyl acetoacetate],Relative activity,[1]; substrate 20 mM,0%
C=CC(C)=O [Methyl vinyl ketone],Inhibition of the enzyme (in words),[3],inhibited
same,remaining activity at 10000 µM,"[3]; inhibitor 10 mM, 30° C., 10 min, standard conditions = 100%, read-out: Residual activity",26.3%
CC(=O)C=O [Methylglyoxal],Relative activity,[1]; substrate 20 mM,1.8%
CCN1C(=O)C=CC1=O [N-ethylmaleimide],Inhibition of the enzyme (in words),[3],inhibited
same,remaining activity at 1000 µM,[3]; [5],20.1%
O=CC(=O)c1ccccc1 [Phenylglyoxal],Relative activity,[1]; substrate 0.5 mM,0%
O=S(=O)(F)Cc1ccccc1 [Phenylmethanesulfonyl fluoride],Residual activity,[3]; [4],89.4%
CCC=O [Propionaldehyde],Relative activity,[1]; substrate 20 mM,0%
O=Cc1cccnc1 [Pyridine-3-aldehyde],Relative activity,[1]; substrate 20 mM,0%
O=c1c(O)c(-c2ccc(O)c(O)c2)oc2cc(O)cc(O)c12 [Quercetin],remaining activity at 100 µM,"[3]; inhibitor 0.1 mM, 30° C., 10 min, standard conditions = 100%, read-out: Residual activity",68.1%
O=C[C@H](O)[C@@H](O)[C@H](O)CO [Xylose],Relative activity,[1]; substrate 20 mM,0%
O=S(=O)([O-])[O-].[Zn+2] [Zinc sulfate],Inhibition of the enzyme (in words),[3],inhibited
same,Residual activity,[3]; [4],12.2%
O=Cc1cccc([N+](=O)[O-])c1 [m-Nitrobenzaldehyde],Relative activity,[1]; substrate 0.2 mM,0.4%
O=Cc1ccccc1[N+](=O)[O-] [o-Nitrobenzaldehyde],Relative activity,[1]; substrate 0.2 mM,0%
c1cnc2c(c1)ccc1cccnc12 [o-Phenanthroline],remaining activity at 1000 µM,[3]; [5],88.3%
O=C(O)c1cc[c]([Hg][Cl])cc1 [p-Chloromercuribenzoic acid],Inhibition of the enzyme (in words),[3],completely inhibited
same,Residual activity,"[3]; inhibitor 0.05 mM, 30° C., 10 min, standard conditions = 100%",0.0%
same,Inhibition of the enzyme (in words),[3]; listed as p-chloromercuricbenzoic acid,significantly inhibited
O=Cc1ccc([N+](=O)[O-])cc1 [p-Nitrobenzaldehyde],Relative activity,[1]; substrate 0.2 mM,0%
